From patent publication US9821042B2, “Use of antagonists of ghrelin or ghrelin receptor to prevent or treat stress-sensitive psychiatric illness” (Massachusetts Institute of Technology, priority 2012, dated 2017)
Where two headings read alike, the source gives them in different places. Non-standard residues stand in square brackets, D forms with d. No end group written: not given here.

Key:
melanocortin receptors = details: cited from earlier work
GHSR1a = GHSR1a (Homo sapiens, UniProt Q92847); details: Tocris Bioscience literature; read-out: IC50 as inhibitor of GHSR1a; cited from earlier work
corticosterone = assay: Plasma corticosterone by ELISA in stressed rats given DLys3; assay type: in vivo, rat; details: stressed animals, tail bleeds in final 30 m of final stress session
Experimental: Rats received either daily handling (NS) or immobilization stress (STR). Each day, a systemic injection of either Dlys3-GHRP-6 (Dlys3), an antagonist of GHSR-1a, or saline (VEH) was administered within 30 m of handling or stress initiation. (a) Animals received auditory fear conditioning 24 h after the last stress or handling session. […] (c) In a subset of animals in the STR group, tail bleeds were performed during the final 30 m of the final stress session and plasma corticosterone levels were measured using ELISA. All data are mean±s.e.m. * p<0.05, ˜p<0.10 in planned comparisons.
(§1) Hormone Assays. Corticosterone, acylated ghrelin, growth hormone and CRF levels were determined using commercial ELISA kits. For corticosterone, non-acidified plasma was diluted 1:25 in assay buffer 15 (Enzo Life Sciences; Farmingdale, N.Y.). For acylated ghrelin, the acidified sample was used for the active ghrelin ELISA (Millipore; Billerica, Mass.) and processed according to the manufacturer's protocol. […] For growth hormone, brain tissue was homogenized 1:6 in lysis buffer and was assayed as per manufacturer's protocol (Millipore; Billerica, Mass.). For CRF, brain tissue collected by micro-dissection was homogenized 1:30 w/v in lysis buffer and assayed per manufacturer's protocol (Kamiya Biomedical Company, Seattle, Wash.).

[1] = system: adult male Long Evans rats; assay: Chronic immobilization stress followed by auditory fear conditioning, ghrelin receptor blockade during stress; details: for long-term fear memory in stressed rats (stress-enhanced fear): daily systemic injection at start of immobilization stress, 4 h/d 14 d
Experimental: Drug Preparation. For systemic drug delivery, rats were injected with 1 ml/kg (i.p.) of the appropriate solution. All drugs were solubilized in 0.9% saline (vehicle) such that injection volumes remained constant for each experiment. […] D-Lys3-GHRP-6 (Tocris Biosciences; Minneapolis, Minn.) was diluted to 2.74 ug/ml in vehicle. […] D-Lys3-GHRP-6 was injected within 30 m of the start of immobilization stress or following handling.
Immobilization Stress. Immobilization stress was administered 4 h per day for 1-14 consecutive days, depending on the experiment. Animals were placed in Decapicone plastic bags (Braintree Scientific; Braintree, Mass.), which were secured at the tail. Stress occurred in a lab room used for no other procedures. All stress sessions were performed between LOAM and 4 PM. Unstressed control rats were handled daily for 30 s. For further parallel control parameters, food was removed from the unstressed rats daily for the same 4 h period in which stressed animals were immobilized and, therefore, without food.
Pavlovian Fear Conditioning. Fear conditioning experiments were conducted in a modified chamber (MED Associates; St. Albans, Vt.) housed in a sound-attenuated cubicle. The animals were placed in individual chambers and infrared video of each session was recorded. Each experiment used auditory fear conditioning wherein rats received 3-5 tone (2 kHz, 85 dB, 10-16s)-footshock (1-2s, 0.4-0.7 mA) pairings in a unique context (metal shock grid floors, chamber fan on, 0.3% PineSol odor, house and room lights on). Animals were allowed 2-3 m to habituate to the chamber before tone-footshock pairings were given at intervals of 1-4 m. Fear memory was tested 24-72 h later by placing the animals in a novel context (white Plexiglas plastic floors, curved Plexiglas wall inserts, fans off, 1% acetic acid odor, house and room lights off). One to 5 m after placement in the novel context, fear to the tone was assessed either by presenting a continuous tone (2 kHz, 85 dB, 8 minutes) or several discrete tones (15 10-16s tones with 1-4 m ISI). Freezing was measured using commercial software (VideoFreeze, MedAssociates, St. Albans, Vt.).
Statistics. For each fear memory session, conditional freezing was assessed as a percentage of time spent freezing, a probability estimate that is amenable to analysis with parametric statistics. These probability estimates of freezing, along with other measures, were analyzed using ANOVA. Post hoc comparisons in the form of Fisher's PLSD tests were performed after a significant omnibus F-ratio (p<0.05). […] All data where p>0.10 are identified as not significant (ns).
To determine whether ghrelin signaling is necessary for stress-related enhancement of fear memory, ghrelin receptor signaling was blocked during repeated stress sessions. […] Twenty-four hours following the final stress or handling session, auditory fear conditioning was administered and fear to the tone was assessed in a subsequent session.

[2] = cited from earlier work; for crossing of the blood-brain barrier: in vivo
[3] = system: adult male Long Evans rats; assay: Auditory fear conditioning after repeated intra-BLA infusions of ghrelin receptor agonist; assay type: in vivo, rat; details: intra-BLA infusion daily for five days
Experimental: Cannulae Implants. Rats were anesthetized with a cocktail of 10 mg/kg acepromazine, […], and 100 mg/kg ketamine (1 ml/kg; i.p.). Rats were mounted into a dual arm stereotaxic frame (Kopf Instruments; Tujunga, Calif.). The rats were then bilaterally implanted with 23-gauge stainless steel guide cannulae aimed 1 mm above the lateral amygdala: A/P −2.0, M/L+/−5.3, D/V −5.4, relative to brain surface and bregma (45). The cannulae were secured by the placement of three jeweler screws in the skull and dental acrylic. Dummy cannulae extending 1 mm past the tip of the guide cannulae were placed into the guide cannula after surgery and changed every other day. Rats received 0.03 mg/kg of Buprenex (1 ml/kg; s.c.) as post-operative pain management every 12 h for at least 24 h and up to 3 days. All rats recovered for a minimum of 5 days before experimentation commenced.
Drug Infusion. For intra-cranial infusions, rats were placed in 5-gallon buckets containing bedding. The dummy cannulae were removed and injectors (30G stainless steel cannulae; extending 1 mm beyond the cannulae end) were inserted. The injectors were attached to Hamilton syringes (10 ul; Hamilton Co., Reno, Nev.) via polyethylene tubing, and the syringes were mounted in a Harvard syringe pump (Harvard Apparatus; Holliston, Mass.). Infusions were given at a rate of 0.1 ul/m for 5 m for a total volume of 0.5 ul/side, with 1 m for diffusion, before the injectors were removed and new dummy cannulae were inserted.
(§2) Pavlovian Fear Conditioning.
Fear memory requires plasticity in numerous brain regions but the basolateral complex of the amygdala (BLA) is particularly important for both formation and storage of learned fear.

CRF = assay: Brain CRF levels by ELISA after systemic MK-0677; assay type: in vivo, rat; details: 5 d systemic injections, 24 h after final injection
Experimental: Rats received daily systemic injections of MK-0677 (MK: 5d), a GHSR-1a agonist, or saline (VEH: 5d) for five days at the endogenous ghrelin signaling nadir. (b) One group underwent auditory fear conditioning 24 h following the final injection. Fear acquisition was assessed by monitoring freezing levels. (c) Conditional freezing to the tone was assessed in a novel context 48 h following fear conditioning. A separate group was sacrificed 24 h following the final injection and microdissections of hypothalamus and amygdala performed. Brain CRF levels were measured using ELISA (d) hypothalamus, (e), basolateral complex of the amygdala). * p<0.05, ** p<0.01, ˜p<0.10 in planned comparisons.
as §1, with “For CRF, brain tissue collected by micro-dissection was homogenized 1:30 w/v in lysis buffer and assayed per manufacturer's protocol (Kamiya Biomedical Company, Seattle, Wash.).” left out

[4] = system: adult male Long Evans rats; assay: Elevated plus maze after systemic MK-0677; assay type: in vivo, rat; details: 5 d systemic injections, single 8 minute session 24 h after last injection
Experimental: Rats received a daily systemic injection of MK-0677 (MK: 5d), an agonist of GHSR-1a, or vehicle (VEH: 5d) for five days at the endogenous ghrelin signaling nadir. Spontaneous freezing (a) and locomotion (b) were assessed in a novel context 24 h after the last injection. A separate group was assessed on the elevated plus maze in a single 8 minute session 24 h after the last injection. Total arm entries (c) and open arm time (d) were measured to assess exploratory behavior and innate anxiety, respectively. (e) Animals received Pavlovian fear conditioning 24 h before beginning daily handling injections of MK-0677 (Post FC MK: 5d) or vehicle (Post FC VEH: 5d) for 5d. […] All data are mean±s.e.m.
Elevated Plus Maze. Rats were tested for anxiety using an elevated plus maze (Hamilton Kinder; Poway, Calif.). The maze had two open arms (51 cm×12 cm each) and was located in a moderately lit room. Open arms consisted of black Plexiglas floors and no walls. The closed arms had black Plexiglas walls 40 cm high. […] Automated software (Motor Monitor 4.14) recorded the second by second movements of the animals while the experimenter made observations in an obscured corner. Each session lasted 8 m and both the observer and the software recorded the latency to exit the first arm and the number of entries into the open and closed arms. Additionally, the software recorded time spent in the each region of the maze. […]

growth hormone release = details: dose of 0.5 mg/ml; cited from earlier work
[5] = system: adult male Long Evans rats; assay: Auditory Pavlovian fear conditioning after systemic ghrelin receptor agonist injections in nonstressed rats; assay type: in vivo, rat; details: for fear memory after a single injection: 1 day of injection, conditioning 24 h later; for long-term fear memory (conditional freezing to the tone): conditioning 24 h after last injection, test 48 h later
Experimental: Subjects. All experiments used adult male Long Evans rats (250-350 g, Taconic, Germantown, N.Y.), housed individually (68-72° F.; 12-h light-dark cycle, 7 AM lights on). Food and water (or 0.9% saline for adrenalectomy experiments) was provided ad libitum. Stressed and unstressed animals were housed in separate cubicles. All procedures were in accordance with the US National Institutes of Health (NIH) Guide for the Care and Use of Laboratory Animals and were approved by the MIT Institutional Animal Care and Use Committee and the Animal Care and Use Review Office of the USAMRMC.
as §2
To determine whether increased activation of the ghrelin receptor is sufficient for enhancement of fear memory, experiments were conducted using pharmacological agonism of GHSR-1a in non-stressed animals. […] MK-0677 (MK: 5d) or saline (VEH: 5d) was systemically administered once a day for five consecutive days in nonstressed rats to determine whether repeated ghrelin receptor agonism in the absence of stress is sufficient to increase fear learning and whether HPA hormones may play a role in this effect. […] One subset of animals was administered auditory fear conditioning 24 h after the last injection.

[6] = systemic injection once a day for 5 days, nonstressed rats

GHSR1a, sequence (Q92847 whole entry): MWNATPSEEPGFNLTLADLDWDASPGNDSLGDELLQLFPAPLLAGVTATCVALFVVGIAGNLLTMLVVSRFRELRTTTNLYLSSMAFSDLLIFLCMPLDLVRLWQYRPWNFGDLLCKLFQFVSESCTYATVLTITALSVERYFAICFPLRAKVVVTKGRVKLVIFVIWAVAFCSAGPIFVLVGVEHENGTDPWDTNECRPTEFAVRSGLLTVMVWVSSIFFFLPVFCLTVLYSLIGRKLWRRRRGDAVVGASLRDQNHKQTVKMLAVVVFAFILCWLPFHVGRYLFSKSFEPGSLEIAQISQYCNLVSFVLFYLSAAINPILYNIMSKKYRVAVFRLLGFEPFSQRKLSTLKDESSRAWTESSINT

H[dW][dK]W[dF]K-NH2 [D-Lys3-GHRP-6]
Ki (melanocortin receptors): 26 to 120 µM | IC50 (GHSR1a): 0.9 µM | stress-induced HPA activation as corticosterone secretion (corticosterone): did not blunt | long-term fear memory in stressed rats (stress-enhanced fear) ([1]; listed as DLys3): completely reversed stress-enhanced fear | long-term fear memory in stressed rats (stress-enhanced fear) ([1]; listed as Dlys-3): sufficient to prevent stress-related enhancement of fear memory | stress enhancement of fear acquisition ([1]; daily systemic injection during immobilization stress): not seen | fear memory in nonstressed controls ([1]; daily systemic injection with daily handling): no effect | crossing of the blood-brain barrier [2]: crosses the blood brain barrier | crossing of the blood-brain barrier ([2]; listed as DLys3): crosses the blood-brain barrier

acylated ghrelin: acylated (bioactive) form of the peptide hormone ghrelin, infused into the BLA
half-life ([2]; ref 29): ~30 m | long-term fear memory ([3]; listed as bioactive ghrelin): replicated

CC(C)(N)C(=O)N[C@H](COCc1ccccc1)C(=O)N1CCC2(CC1)CN(S(C)(=O)=O)c1ccccc12 [MK-0677]
amygdalar CRF level (CRF): trend for repeated ghrelin receptor activation to decrease | hypothalamic CRF level (CRF): no change | innate anxiety (open arm time) [4]: not altered | crossing of the blood-brain barrier [2]: readily crosses the blood-brain barrier | half-life ([2]; ref 30): 5 to 6 h | half-life ([2]; refs 47, 48): over six | growth hormone release (growth hormone release): significant and prolonged increases | tolerability (growth hormone release): well-tolerated | freezing during fear conditioning [3]: not altered | long-term fear memory [3]: significantly enhanced | long-term fear memory ([3]; listed as MK677): sufficient to enhance fear memory | fear memory after a single injection [5]: trend towards impairment | fear memory after a single injection ([5]; listed as MK677): no effect | expression of previously acquired auditory fear memory ([5]; conditioning 24 h before 5 d of injections, test 24 h after last injection): not affected | fear memory after 3 days of injections ([5]; daily injections for 3 days): no effect | fear memory after a single injection followed by 14 d delay ([5]; single injection, 14 d in vivarium before conditioning): not sufficient to enhance fear | fear acquisition during conditioning (freezing) [5, 6]: did not alter | long-term fear memory (conditional freezing to the tone) [5, 6]: significantly enhanced | long-term fear memory (conditional freezing to the tone) ([5]; systemic injection once a day for 5 days, nonstressed rats, listed as MK677): increased fear memory
